The values that follow come from patent US20230203022A1, “HETEROCYCLE AND GLUTARIMIDE SKELETON-BASED COMPOUND AND APPLICATIONS THEREOF” (Shanghaitech University, priority 2020, published 2023).

What all share (assay type): cell-based
One assay concerns TNF-α. Briefly: TNF-α inhibition in LPS-stimulated PBMC cells (ELISA). To be noted: LPS 1 µg/ml, 18-20 h. The source says:
(§1) The tested cell line used were: Multiple myeloma cell line MM.1S, Mino (human mantle cell lymphoma cell), SR (anaplastic large cell lymphoma cell), PBMC (peripheral blood mononuclear cell), which were purchased from ATCC (American type Culture Collection). The medium was RPMI1640 supplemented with 10% FBS (fetal calf serum) and 1% Penicillin-Streptomycin. The cells used were identified as correct cells by STR cells, and were negative for mycoplasma through routine inspections.
PBMC cells were cultured at 37° C. in 5% CO2 atmosphere, and then seeded in 96-well plates at 1×10^6 cells/well. […] Cells were pretreated with compounds and vehicle control (DMSO) for 1 h, then stimulated with lipopolysaccharide (LPS; 1 µg/ml), and continually cultured for 18-20 h. Then, the supernatant was collected, and tested for TNF-α level by ELISA kit. IC50 was then calculated by Graphpad Prism 7.0.
Background: ELISA stands for enzyme-linked immunosorbent assay.

Assay [1] relates to Mino (human mantle cell lymphoma cell). Briefly: Cell viability / proliferation inhibition IC50 in Mino lymphoma cells, 72 h, WST. To be noted: Mino cell line, WST reagent.
Excerpt: as §1
(§2) IC50 values of the compounds of the present disclosure (including examples 1-11 compounds) were measured using Cell Titer Blue, Cell Titer GLO, or WST reagent from Promega Company. Assay details are as follows: Cells were seeded in 100 µL RPMI1640 complete medium containing serum at a density of 15,000 cells/well. After 24 h, the inoculated cells were treated with diluted commercial inhibitor and the compounds of the present disclosure to be tested after serial dilution. After the cells were treated with the compounds of the present disclosure to be tested (including examples 1-11 compounds) for 72 h, cell viability was determined after adding the cell viability detection kit listed above according to the reagent operating instructions. The negative control was DMSO, and the positive control was a commercial inhibitor, both of which were used to treat the cells through the same method as that of the compounds of the present disclosure. The growth inhibition of the compounds of the present disclosure on cells was plotted by Prism Graphpad software, and the IC50 values of the compounds of the present disclosure were calculated therefrom.
(§3) We tested the activities of the compounds of the present invention (including the compounds in Table 1 and Examples 1-11 compounds) in MM.1S cell, mantle cell lymphoma Mino cells, and anaplastic large cell lymphoma SR cells through a dose-dependent manner. These cells overexpressed IKZF⅓ and was not sensitive to existing immunomodulatory drugs. The cells were treated with the compounds of the present invention at 10 different successively decreasing concentrations (starting at the highest concentration of 10 µM; 5-fold serial dilutions) for 72 h, and then the cell viability determination was performed in accordance with CCK-8 reagent operating instructions. The experiment was repeated more than three times.

Assay [2] concerns Multiple myeloma cell line MM.1S. As to the kind of experiment: Cell viability / proliferation inhibition IC50 in MM.1S cells, 72 h. Conditions: Homo sapiens, MM1.S, 72 h treatment.
Excerpt: as §1, §2, §3

Another assay has as its target T1, IKZF3 (Homo sapiens, UniProt Q96SW2+Q9UKT9).
T1 construct: degradation of IKZF1 and IKZF3 proteins caused by the compounds of the present invention in multiple myeloma cells MM.1S; endogenous in cells; host or cells: MM.1S (ATCC)
As to the kind of experiment: Western blotting assay of IKZF3 degradation in MM.1S cells. To be noted: 16 h, Western blot, FIG. 1. On the procedure:
Most antibodies were purchased from Cell Signaling Technology, including IKZF1 (#9034S), IKZF3(#15103S). GAPDH antibody was purchased from Abcam Company.
Tumor cells were plated in a 24-well plate at a cell seeding density of 3×10^5 cells/mL, with 1 mL culture media per well. After 24 h, the cells were treated with different concentrations of the compounds of the present disclosure. After 16 hours, the cells were collected, and washed with PBS. The supernatant was discarded, and the cells were placed on ice, and treated with RIPA protein lysate containing Halt protease and phosphatase inhibitor. The lysate was centrifuged at 10000 RPM at 4° C. for 10 minutes, and the supernatant was collected. An equal amount of proteins were loaded in 4X SDS sample solution, denatured at 95° C. for 5 minutes, and then freezed to -20° C. or directly subjected to protein electrophoresis (4-15% gradient gel, Bio-rad). […]
DC50 value (the drug concentration required for degrading proteins by 50%, abbreviated as DC50) reads method: comparing the gray values of the Western blotting bands for the drug treatment with the gray values of the Western blotting band for the DMSO control, and reading the drug concentration range corresponding to the gray value of the Western blotting bands for the drug treatment which is equal to half of the gray value of the Western blotting band for the DMSO control. […]
(In general: A western blot detects proteins with antibodies after separation by electrophoresis.)

The subject of assay [3] is SR (anaplastic large cell lymphoma cell). Briefly: Cell viability / proliferation inhibition IC50 in SR lymphoma cells, 72 h, WST. To be noted: SR cell line, WST reagent.
Excerpt: as §1, §2
We tested the activities of the compounds of the present invention (including the compounds in Table 1 and Examples 1-11 compounds) in MM.1S cell, mantle cell lymphoma Mino cells, and anaplastic large cell lymphoma SR cells through a dose-dependent manner. These cells overexpressed IKZF⅓ and was not sensitive to existing immunomodulatory drugs. […]

T1 sequence (Q9UKT9 whole entry): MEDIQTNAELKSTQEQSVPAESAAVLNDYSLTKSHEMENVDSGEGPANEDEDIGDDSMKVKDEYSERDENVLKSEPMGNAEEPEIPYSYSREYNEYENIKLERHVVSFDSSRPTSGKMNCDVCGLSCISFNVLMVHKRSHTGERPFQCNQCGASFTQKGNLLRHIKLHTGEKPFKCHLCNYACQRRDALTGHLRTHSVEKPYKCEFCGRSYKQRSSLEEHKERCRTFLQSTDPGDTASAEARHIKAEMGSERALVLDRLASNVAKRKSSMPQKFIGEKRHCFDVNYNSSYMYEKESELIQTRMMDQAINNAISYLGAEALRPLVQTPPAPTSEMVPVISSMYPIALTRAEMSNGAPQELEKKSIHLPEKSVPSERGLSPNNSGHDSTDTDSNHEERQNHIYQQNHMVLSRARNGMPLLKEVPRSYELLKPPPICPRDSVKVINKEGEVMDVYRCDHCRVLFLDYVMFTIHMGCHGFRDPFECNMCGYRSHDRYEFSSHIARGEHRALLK
T1 sequence (Q96SW2 whole entry): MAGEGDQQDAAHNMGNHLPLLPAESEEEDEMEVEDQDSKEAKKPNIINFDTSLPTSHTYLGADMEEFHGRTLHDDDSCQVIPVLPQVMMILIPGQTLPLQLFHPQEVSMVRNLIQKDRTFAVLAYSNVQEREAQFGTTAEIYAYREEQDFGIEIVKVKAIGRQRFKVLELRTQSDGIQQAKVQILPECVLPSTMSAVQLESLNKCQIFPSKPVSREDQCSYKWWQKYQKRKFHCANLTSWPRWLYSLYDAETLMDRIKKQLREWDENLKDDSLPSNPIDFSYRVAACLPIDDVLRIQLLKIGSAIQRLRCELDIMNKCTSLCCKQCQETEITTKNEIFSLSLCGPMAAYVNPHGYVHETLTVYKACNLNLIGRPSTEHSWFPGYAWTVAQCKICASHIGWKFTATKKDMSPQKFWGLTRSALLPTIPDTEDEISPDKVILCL
T1 sequence (Q16531 whole entry partner): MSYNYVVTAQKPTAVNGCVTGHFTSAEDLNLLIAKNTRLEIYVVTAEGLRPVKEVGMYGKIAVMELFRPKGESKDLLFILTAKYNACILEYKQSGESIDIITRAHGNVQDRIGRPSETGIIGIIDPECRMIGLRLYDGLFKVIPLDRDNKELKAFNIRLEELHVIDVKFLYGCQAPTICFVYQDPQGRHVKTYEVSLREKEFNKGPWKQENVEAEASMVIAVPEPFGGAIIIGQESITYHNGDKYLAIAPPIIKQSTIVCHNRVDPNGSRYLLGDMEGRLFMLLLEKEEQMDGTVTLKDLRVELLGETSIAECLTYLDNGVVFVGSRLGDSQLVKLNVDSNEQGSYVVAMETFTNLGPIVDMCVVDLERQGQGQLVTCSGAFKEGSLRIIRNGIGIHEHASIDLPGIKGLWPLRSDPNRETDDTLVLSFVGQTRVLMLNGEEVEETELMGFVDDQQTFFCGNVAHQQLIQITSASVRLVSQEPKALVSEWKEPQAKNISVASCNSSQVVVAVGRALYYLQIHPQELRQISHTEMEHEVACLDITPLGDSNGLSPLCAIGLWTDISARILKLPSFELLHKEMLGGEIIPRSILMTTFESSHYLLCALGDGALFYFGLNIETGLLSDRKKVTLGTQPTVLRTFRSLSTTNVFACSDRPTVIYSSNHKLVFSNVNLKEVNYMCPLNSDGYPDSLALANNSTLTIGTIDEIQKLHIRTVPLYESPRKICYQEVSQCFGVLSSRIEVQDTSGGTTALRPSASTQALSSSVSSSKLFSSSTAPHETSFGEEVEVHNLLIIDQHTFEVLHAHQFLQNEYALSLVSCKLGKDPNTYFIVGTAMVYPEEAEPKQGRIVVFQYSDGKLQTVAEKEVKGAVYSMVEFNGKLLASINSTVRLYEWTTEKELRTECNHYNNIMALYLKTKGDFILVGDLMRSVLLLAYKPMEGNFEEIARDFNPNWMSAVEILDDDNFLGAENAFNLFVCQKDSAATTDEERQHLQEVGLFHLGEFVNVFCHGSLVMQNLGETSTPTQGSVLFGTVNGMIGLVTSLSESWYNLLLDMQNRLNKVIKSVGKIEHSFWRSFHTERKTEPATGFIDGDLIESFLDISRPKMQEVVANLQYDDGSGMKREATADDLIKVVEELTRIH

As usually defined, the IC50 is the concentration that gives 50% inhibition. Read a high IC50 as weaker potency in that assay. Molecule `Nc1cccc2c1CN(C1CCC(=O)NC1=O)C2=O` (centres unmarked) [Lenalidomide, reference compound] had a half-inhibitory concentration (IC50) with TNF-α of 10 to 100 nM.

In turn, `Nc1cccc2c1C(=O)N(C1CCC(=O)NC1=O)C2=O` (centres unmarked) [Pomalidomide, reference compound] displayed a 50% inhibitory concentration (IC50) in assay [1] (Homo sapiens, MINO) of 48 nM.

The molecule `O=C1CCC(N2Cc3c(SCCn4cc(CN[C@]56CC7CC(C[C@@H](C7)C5)C6)nn4)cccc3C2=O)C(=O)N1` (some centres unmarked) [SIAIS287097, 3-(4-((2-(4-((adamantan-1-ylamino)methyl)-1H-1,2,3-triazol-1-yl)ethyl)thio)-1-oxoisoindolin-2-yl)piperidine-2,6-dione] showed an IC50 in the assay with TNF-α below 5 nM.

As to `O=C1CCC(N2Cc3c(SCc4cc5cc(CNC67CC8CC(CC(C8)C6)C7)ccc5o4)cccc3C2=O)C(=O)N1` (centres unmarked) [SIAIS287116, 3-(4-(((5-((adamantan-1-ylamino)methyl)benzofuran-2-yl)methyl)thio)-1-oxoisoindolin-2-yl)piperidine-2,6-dione], the IC50 in assay [2] is 0.003 nM; with TNF-α, below 1 nM; in assay [1] (Homo sapiens, MINO), around 0.39 nM; in assay [1], 0.387 nM; in assay [3] (Homo sapiens, SR) it was around 0.5 nM; in assay [3] it was 0.454 nM. For the same molecule, the “concentration at which IKZF3 protein is significantly degraded” value on IKZF3 is recorded as “less than 0.01 nM”.

Take `O=C1CCC(N2Cc3c(SCc4nc(CNC56CC7CC(CC(C7)C5)C6)cs4)cccc3C2=O)C(=O)N1` (centres unmarked) [SIAIS287129, 3-(4-(((4-((adamantan-1-ylamino)methyl)thiazol-2-yl)methyl)thio)-1-oxoisoindolin-2-yl)piperidine-2,6-dione]: the IC50 in assay [2] was 0.181 nM; in assay [1] (Homo sapiens, MINO), 2.59 nM; in assay [3] (Homo sapiens, SR), 4.02 nM.

Molecule `O=C1CCC(N2Cc3c(SCc4ccc(CNC56CC7CC(CC(C7)C5)C6)o4)cccc3C2=O)C(=O)N1` (centres unmarked) [SIAIS313118, 3-(4-(((5-((adamantan-1-ylamino)methyl)furan-2-yl)methyl)thio)-1-oxoisoindolin-2-yl)piperidine-2,6-dione] returned a concentration for half-maximal inhibition (IC50) in assay [2] of 0.09 ± 0.02 nM.

On to `O=C1CCC(N2Cc3c(SCc4csc(CNC56CC7CC(CC(C7)C5)C6)n4)cccc3C2=O)C(=O)N1` (centres unmarked) [SIAIS313160, 3-(4-(((2-((adamantan-1-ylamino)methyl)thiazol-4-yl)methyl)thio)-1-oxoisoindolin-2-yl)piperidine-2,6-dione], for which the figures for the IC50 (in assay [2]; with TNF-α) were 0.13 ± 0.03 nM and below 1 nM, respectively.

Take `O=C1CCC(N2Cc3c(SCc4nc(CN[C@H]5[C@H]6CC7CC(C6)C[C@@H]5C7)cs4)cccc3C2=O)C(=O)N1` (some centres unmarked) [SIAIS313185, 3-(4-(((4-((adamantan-2-ylamino)methyl)thiazol-2-yl)methyl)thio)-1-oxoisoindolin-2-yl)piperidine-2,6-dione]: the IC50 in assay [2] was found to be 0.16 ± 0.02 nM.

On to `O=C1CCC(N2Cc3c(SCc4ccc5cc(CN[C@]67CC8CC(C[C@@H](C8)C6)C7)ccc5n4)cccc3C2=O)C(=O)N1` (some centres unmarked) [SIAIS338048, 3-(4-(((6-((adamantan-1-ylamino)methyl)quinolin-2-yl)methyl)thio)-1-oxoisoindolin-2-yl)piperidine-2,6-dione], for which it took 0.06 ± 0.04 nM to reach half-maximal inhibition in assay [2] (IC50).

For `O=C1CCC(N2Cc3c(SCc4cc5cc(C(=O)NC67CC8CC(CC(C8)C6)C7)ccc5s4)cccc3C2=O)C(=O)N1` (centres unmarked) [SIAIS338091, N-(adamantan-1-yl)-2-(((2-(2,6-dioxopiperidin-3-yl)-1-oxoisoindolin-4-yl)thio)methyl)benzo[b]thiophene-5-carboxamide], the IC50 in assay [2] was 0.02 nM; with TNF-α, below 1 nM.

`O=C1CCC(N2C(=O)c3cccc(NCc4ccc(CNC56CC7CC(CC(C7)C5)C6)cn4)c3C2=O)C(=O)N1` (centres unmarked) [SIAIS355067, 4-(((5-((adamantan-1-ylamino)methyl)pyridin-2-yl)methyl)amino)-2-(2,6-dioxopiperidin-3-yl)isoindoline-1,3-dione]: the IC50 in assay [2] is 4.46 ± 0.18 nM; in the assay with TNF-α it was below 5 nM.

Molecule `O=C1CCC(N2Cc3c(SCc4csc(C(=O)NC56CC7CC(CC5C7)C6)n4)cccc3C2=O)C(=O)N1` (centres unmarked) [SIAIS355073, 4-(((2-(2,6-dioxopiperidin-3-yl)-1-oxoisoindolin-4-yl)thio)methyl)-N-(octahydro-2,5-methanopentalen-6a-yl)thiazole-2-carboxamide] yielded an IC50 in assay [2] of 0.51 ± 0.25 nM.
